Measurements as given in patent US5908828A, “Synthetic peptide derivatives and the salts thereof” (Hoechst Japan Limited, priority 1994, dated 1999).
Bridge positions count the residues as written; N and C are the ends. Ends that are not written are not given here. I, II: the chains in the order shown.

Tested on: ALPase activity in MC3T3-E1 cells promoted by rh-BMP-2
Test: Assay of BMP inhibiting activity (BMP-2 antagonist-like activity): ALPase activity in cultured MC3T3-E1 cells
Format: cell-based, mouse
Conditions: for ALPase activity: MC3T3-E1 cells, 2 days
Procedure: BMP-2 antagonist-like activity of the present synthetic peptide derivatives was assayed by way of cultured MC3T3-E1 cells which were established from mouse calvaria having osteoblast-like property, by Kodama et al. (Kodama, H. et al. (1981) Jpn. J Oral. Biol., vol.23, p.899). The cultured MC3T3-E1 cells were prepared according to Takuwa et al. (Takuwa, Y. et al., (1991) Biochem.
Biophys. Res. Comuni., vol. […] ALPase is often used as an indicator enzyme for differentiation and maturity of osteoblasts and chondrocytes (Pfeilschifter, J., et al., Endocrinology (1987), vol. 121, p212-218; Rodan, G. A., et al., calcium regulating hormones and bone metabolism, Elsevir Science Publishers B.V., (1992), p 183-196).

For “synthetic peptide derivative: Fragment P1 (SEQ ID NO:1, N-terminal acetyl-Cys) joined to Fragment P2 (SEQ ID NO:2) through a 4-(N-maleimidomethyl)cyclohexane-1-carbonyl linker (chain 1 {CH2CO}-CDFSDVGWNDWIVAPPGY; chain 2 AIVQTLVNSVNSKIPKA; thioether I:N-II:N via 4‑(N-maleimidomethyl)cyclohexane‑1‑carbonyl; not fully specified (N-terminus, C-terminus, bridges))”, the “inhibition of rh-BMP-2-promoted ALPase activity in MC3T3-E1 cells” value (2×10^-9 to 2×10^-6 M, result in words) was “inhibited ALPase activity in MC3T3-E1 cells which were promoted by rh-BMP-2 with 2×10^-9 to 2×10^-6 M dose dependently”, the ALPase activity (rh-BMP-2 5 ng/ml + synthetic peptide derivative 2 × 10^-7 M, n = 4) was 302 ± 54 pmol/min and the ALPase activity (rh-BMP-2 5 ng/ml + synthetic peptide derivative 2 × 10^-8 M, n = 4) was 486 ± 36 pmol/min. For the same substance, the ALPase activity (rh-BMP-2 5 ng/ml + synthetic peptide derivative 2 × 10^-9 M, n = 4) was 632 ± 71 pmol/min, the ALPase activity (rh-BMP-2 5 ng/ml + synthetic peptide derivative 2 × 10^-10 M, n = 4) was 876 ± 120 pmol/min and the ALPase activity (rh-BMP-2 (b ng/ml) + synthetic peptide derivative 2 × 10^-6 M, n = 1) was 269 pmol/min.
